According to ChEMBL document CHEMBL1129702, “Synthesis and pharmacological profile of new 1,3-disubstituted cyclohexanes as leukotriene B4 receptor antagonists” (Bioorg Med Chem Lett, 1996):

Key:
[1] = target: T1, Leukotriene B4 receptor 1 (Homo sapiens, UniProt Q15722); test: Compound was evaluated for inhibitory activity against LTB4 receptor in human neutrophil membranes using [3H]- LTB4 as radioligand; format: cell membranes
[2] = target: T1, Leukotriene B4 receptor 1; test: Compound was evaluated for relative binding affinity against LTB4 receptor in human neutrophil membranes using [3H]- LTB4 as radioligand relative to leukotriene B4; format: cell membranes

T1 sequence (Q15722 whole entry): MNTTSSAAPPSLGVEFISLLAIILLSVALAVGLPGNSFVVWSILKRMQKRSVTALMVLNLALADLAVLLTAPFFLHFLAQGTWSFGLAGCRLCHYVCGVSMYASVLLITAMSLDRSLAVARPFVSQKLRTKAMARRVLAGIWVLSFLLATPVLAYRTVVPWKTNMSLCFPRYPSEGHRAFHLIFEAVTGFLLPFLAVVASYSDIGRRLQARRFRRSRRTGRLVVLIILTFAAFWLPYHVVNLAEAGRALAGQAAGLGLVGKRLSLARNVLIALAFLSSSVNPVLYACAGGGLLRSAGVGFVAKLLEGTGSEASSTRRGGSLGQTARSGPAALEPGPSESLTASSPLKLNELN

SMILES	IC50 [1] [µM]	relative binding affinity (RBA) [2]
O=C(O)C[C@]1(O)CCC[C@H](/C=C/C(O)CCCCc2ccccc2)C1 (stereo in doubt; 1d1) [listing 1 of 2 here]	0.3	
O=C(O)C[C@]1(O)CCC[C@H](/C=C/C(O)CCCCc2ccccc2)C1 (stereo in doubt; 1d1) [listing 2 of 2 here]		0.025
O=C(O)C[C@]1(O)CCC[C@H](/C=C/C(O)CCCCc2ccccc2)C1 (stereo in doubt; 1d) [listing 1 of 2 here]	0.8	
O=C(O)C[C@]1(O)CCC[C@H](/C=C/C(O)CCCCc2ccccc2)C1 (stereo in doubt; 1d2)	70	

More lines, now with the values ahead:

IC50 [1] [µM]	relative binding affinity (RBA) [2]	SMILES
70		CCCCCC(O)/C=C/[C@H]1CCC[C@@](O)(CCCC(=O)O)C1 (stereo not given in full)
1	0.008	CCCCCCCCC(O)/C=C/[C@H]1CCC[C@@](O)(CC(=O)O)C1 (stereo not given in full)
8	0.001	CCCCCC(O)/C=C/[C@H]1CCC[C@@](O)(CC(=O)O)C1 (stereo not given in full)
	0.01	O=C(O)C[C@]1(O)CCC[C@H](/C=C/C(O)CCCCc2ccccc2)C1 (stereo in doubt; 1d) [listing 2 of 2 here]
